Data: US20130029981A1, “COMPOUNDS, COMPOSITIONS, AND METHODS FOR CONTROLLING BIOFILMS” (Katholieke Universiteit Leuven, priority 2009, published 2013)
Where two headings read alike, the source gives them in different places.

Tests used:
S. Typhimurium ATCC14028 = assay: Static peg assay for prevention of biofilm formation (Calgary device, crystal violet); assay type: cell-based, Salmonella Typhimurium
Experimental: (§1) Evaluation of the biofilm inhibitory activity of some substituted 2-amino-1H-imidazoles of the invention was carried out by growing up biofilms of S. Typhimurium ATCC14028 or SL1344 or Pseudomonas aeruginosa PA14 in the presence of different concentrations (1/2 dilution series) of biofilm inhibitors, by using the Calgary biofilm device. After an incubation period of 24 hours at 25° C. or 37° C. or 48 hours at 16° C. the biofilms were visualized by crystal violet staining. In the next step the stain was extracted from the biofilm with 30% acetic acid. The absorbance of the resolubilized stain at 570 nm is a measure of the amount of biofilm formed.
In examples 2 and 3, the following materials and methods were used.
The device used for biofilm formation is a platform carrying 96 polystyrene pegs (Nunc no. 445497) that fits as a microtiter plate lid with a peg hanging into each microtiter plate well (Nunc no. 269789). Biofilm formation assays were carried out at 16° C., 25° C. and 37° C.
For biofilm assays at 16° C. and 25° C., two-fold serial dilutions of the compounds in 100 μl liquid TSB 1/20 broth per well were prepared in the microtiter plate. Subsequently, an overnight culture of S. Typhimurium ATCC14028 or SL1344 (grown up in LB medium) was diluted 1:100 into TSB 1/20 broth and 100 μl (ca. 10^6 cells) was added to each well of the microtiter plates, resulting in a total amount of 200 μl medium per well. The pegged lid was placed on the microtiter plate and the plate was incubated for 48 hours at 16° C. or for 24 hours at 25° C. without shaking. During this incubation period biofilms were formed on the surface of the pegs. In case of the assay at 16° C., after 24 hours the lid was transferred into a new plate with medium and the specific molecules used for testing. […] For quantification of biofilm formation, the pegs were washed once in 200 μl phosphate buffered saline (PBS). The remaining attached bacteria were stained for 30 minutes with 200 μl 0.1% (w/v) crystal violet in an isopropanol/methanol/PBS solution (v/v 1:1:18). Excess stain was rinsed off by placing the pegs in a 96-well plate filled with 200 μl distilled water per well. After the pegs were air dried (30 min), the dye bound to the adherent cells was extracted with 30% glacial acetic acid (200 μl). The OD570 of each well was measured using the VERSAmax microtiter plate reader. The IC50 value for each compound was determined from concentration gradients in two or three independent experiments (with 2 or 3 repeats per experiment), by using the GraphPad software of Prism.
For biofilm assays at 37° C., two-fold serial dilutions of the compounds in 50 μl liquid CFA broth per well were prepared in the microtiter plate. Subsequently, an overnight culture of S. Typhimurium ATCC 14028 was diluted 1:100 into CFA broth and 100 μl (ca. 10^6 cells) was added to each well of the microtiter plates, resulting in a total amount of 150 μl medium per well. The pegged lid was placed on the microtiter plate and the plate was incubated for 24 hours at 37° C. without shaking. During incubation the plates were placed in a humidity controlled container to prevent evaporation of the growth medium. Quantification of biofilm formation was performed similarly as described above for the assays at 16° C. and 25° C.
as §1, with “imidazo[1,2-a]pyrimidinium bromide salts” for “2-amino-1H-imidazoles”

[1] = tested on: Pseudomonas aeruginosa PA14; assay: as above; assay type: cell-based
Experimental: as §1
The device used for Pseudomonas aeruginosa biofilm formation is the same platform carrying polystyrene pegs as described above for Salmonella Typhimurium.
Two-fold serial dilutions of the compounds in 100 μl liquid broth per well were prepared in the microtiter plate. Subsequently, an overnight culture of P. aeruginosa PA14 (grown up in TSB medium) was diluted 1:100 into liquid broth and 100 μl was added to each well of the microtiter plates, resulting in a total amount of 200 μl medium per well. The pegged lid was placed on the microtiter plate and the plate was incubated for 24 hours at 25° C., 30° C. or 37° C. without shaking. During this incubation period biofilms were formed on the surface of the pegs. The liquid broth used for the tests at 25° C. was TSB 1/20. The tests at 37° C. were performed in CFA and/or LBNS broth. During incubation at 30° C. and 37° C. the plates were placed in a humidity controlled container to prevent evaporation of the growth medium. Quantification of biofilm formation was performed similarly as described previously for the S. Typhimurium biofilm assays.
as §1, with “imidazo[1,2-a]pyrimidinium bromide salts” for “2-amino-1H-imidazoles”
as §1, with “substituted imidazo[1,2-a]-pyrimidinium bromide and perchlorate salts produced according to examples 3 and 5” for “substituted 2-amino-1H-imidazoles of the invention”, “C.” for “C. or 37° C. or 48 hours at 16° C.”, “nm was taken as” for “nm is”

[2] = 25° C., Table 16, read-out: S. Typhimurium IC50 (biofilm formation)
[3] = 25° C., Table 16, read-out: P. aeruginosa IC50 (biofilm formation)
[4] = Table 21, S. Typhimurium ATCC14028, 25° C., read-out: S. Typhimurium IC50 (biofilm formation)
[5] = Table 21, P. aeruginosa PA14, 25° C., read-out: P. aeruginosa IC50 (biofilm formation)
[6] = 25° C., 24 hours, Table 15, read-out: (1) IC50 (biofilm inhibition)
[7] = S. Typhimurium ATCC 14028, 25° C., read-out: S. Typhimurium IC50 (biofilm formation)
[8] = P. aeruginosa PA14, 25° C., read-out: P. aeruginosa IC50 (biofilm formation)
[9] = 25° C., 24 hours, Table 15, read-out: (2) IC50 (biofilm inhibition)
[10] = Salmonella enterica, 24 h, read-out: (1) IC50 (biofilm inhibition)
[11] = Pseudomonas aeruginosa, PA14, 24 h, read-out: (2) IC50 (biofilm inhibition)
[12] = 25° C., Table 18, read-out: S. Typhimurium IC50 (biofilm formation)
[13] = 25° C., Table 18, read-out: P. aeruginosa IC50 (biofilm formation)

CCCCN1c2nccc[n+]2CC1(O)c1ccc([N+](=O)[O-])cc1 (stereo not shown) [Compound 31]
IC50 (S. Typhimurium ATCC14028; [2]): 293 µM
IC50 [1, 3]: 145 µM

O=[N+]([O-])c1cccc(-c2cnc(NC3CCCCC3)[nH]2)c1 [Compound 124]
IC50 (S. Typhimurium ATCC14028; [4]): 630 µM
IC50 [1, 5]: 4.4 µM

CC(C)CN1c2nccc[n+]2CC1(O)c1ccccc1 (racemic) [Compound 4]
IC50 (S. Typhimurium ATCC14028; [2]): 131 µM
IC50 [1, 3]: 289 µM

CCCCCCCCCCN1c2nccc[n+]2CC1(O)c1ccc([N+](=O)[O-])cc1 (stereo not shown) [Compound 36]
IC50 (S. Typhimurium ATCC14028; [6]): 9.95 µM
IC50 (S. Typhimurium ATCC14028; [2]): 9.9 µM
IC50 [1, 3]: 22.3 µM

CCCNc1ncc(-c2ccc(Cl)c(Cl)c2)[nH]1 [Compound 109]
IC50 (S. Typhimurium ATCC14028; [7]): 10.9 µM
IC50 [1, 8]: 27.7 µM

CC(C)Nc1nc(-c2ccccc2)c[nH]1 [Compound 82]
IC50 (S. Typhimurium ATCC14028; [7]): > 800 µM
IC50 [1, 8]: 261 µM

Clc1ccc(-c2cnc(NC3CCCC3)[nH]2)cc1 [Compound 118]
IC50 (S. Typhimurium ATCC14028; [4]): 4.4 µM
IC50 [1, 5]: 13.5 µM

CCN1c2nccc[n+]2CC1(O)c1ccc([N+](=O)[O-])cc1 (racemic) [Compound 29]
IC50 (S. Typhimurium ATCC14028; [2]): 579 µM
IC50 [1, 3]: > 800 µM

CCCCCCCCN1c2nccc[n+]2CC1(O)c1ccc(-c2ccc(-c3ccccc3)cc2)cc1 (stereo not shown) [Compound 55]
IC50 (S. Typhimurium ATCC14028; [6]): ~52.8 µM
IC50 (S. Typhimurium ATCC14028; 25° C., Table 17, read-out: S. Typhimurium IC50 (biofilm formation)): ~52.8 µM
IC50 [1, 9]: 26.8 µM
IC50 ([1]; 25° C., Table 17, read-out: P. aeruginosa IC50 (biofilm formation)): 336 µM

CCCCCCCCN1c2nccc[n+]2CC1(O)c1ccccc1 (racemic) [Compound 8]
IC50 (S. Typhimurium ATCC14028; [6]): 9.77 µM
IC50 (S. Typhimurium ATCC14028; [2]): 9.8 µM
IC50 [1, 9]: 11.2 µM
IC50 [1, 3]: 18.9 µM

Nc1nc(-c2ccc(Cl)cc2)c[nH]1 [Compound 85]
IC50 (S. Typhimurium ATCC14028; [7]): 16 µM
IC50 [1, 8]: 3.5 µM

Nc1ncc(-c2ccc(F)cc2)[nH]1 [Compound 96]
IC50 (S. Typhimurium ATCC14028; [7]): 84.4 µM
IC50 [1, 8]: 15 µM

CCCCNc1ncc(-c2ccc(Br)cc2)[nH]1 [Compound 102]
IC50 (S. Typhimurium ATCC14028; [7]): 7.1 µM
IC50 [1, 8]: 9.8 µM

CCCCCCCC[n+]1c(-c2cccc3ccccc23)cn2cccnc21.[O-][Cl+3]([O-])([O-])[O-] [1-octyl-2-(1-naphthalenyl)-imidazo[1,2-a]-pyrimidin-1-ium perchlorate]
IC50 (S. Typhimurium ATCC14028; [10]): ~6.6 µM
IC50 [1, 11]: 6.83 µM

O=[N+]([O-])c1ccc(-c2cnc(NC3CCCCC3)[nH]2)cc1 [Compound 123]
IC50 (S. Typhimurium ATCC14028; [4]): 36.7 µM
IC50 [1, 5]: ~25 µM

CC(C)CNc1nc(-c2ccccc2)c[nH]1 [Compound 84]
IC50 (S. Typhimurium ATCC14028; [7]): 4.9 µM
IC50 [1, 8]: 1.2 µM

CC(C)N1c2nccc[n+]2CC1(O)c1ccc([N+](=O)[O-])cc1 (racemic) [Compound 30]
IC50 (S. Typhimurium ATCC14028; [2]): 466 µM
IC50 [1, 3]: 192 µM

O=[N+]([O-])c1ccc(-c2cnc(NC3CCCC3)[nH]2)cc1 [Compound 119]
IC50 (S. Typhimurium ATCC14028; [4]): 11.8 µM
IC50 [1, 5]: 20.2 µM

CCCCCCCCN1c2nccc[n+]2CC1(O)c1ccc([N+](=O)[O-])cc1 (stereo not shown) [Compound 35]
IC50 (S. Typhimurium ATCC14028; [6]): 6.62 µM
IC50 (S. Typhimurium ATCC14028; [2]): 6.6 µM
IC50 [1, 9]: 7.65 µM
IC50 [1, 3]: 19.7 µM

CCCCCCCCNc1nc(-c2ccc(Cl)cc2)c[nH]1 [Compound 88]
IC50 (S. Typhimurium ATCC14028; [7]): > 400 µM
IC50 [1, 8]: ~1.6 µM

CCCCN1c2nccc[n+]2CC1(O)c1ccccc1 (racemic) [Compound 3]
IC50 (S. Typhimurium ATCC14028; [2]): 410 µM
IC50 [1, 3]: > 400 µM

CCCCCCCC[n+]1c(-c2ccc(SC)cc2)cn2cccnc21.[O-][Cl+3]([O-])([O-])[O-] [2-(4-Methylthiophenyl)-1-octylimidazo[1,2-a]pyrimidin-1-ium perchlorate]
IC50 (S. Typhimurium ATCC14028; [10]): 20.7 µM
IC50 [1, 11]: 9.29 µM

OC1(c2ccc(Cl)cc2)C[n+]2cccnc2N1C1CCCCCC1 (stereo not shown) [Compound 65]
IC50 (S. Typhimurium ATCC14028; [6]): 27.9 µM
IC50 (S. Typhimurium ATCC14028; [12]): 27.9 µM
IC50 [1, 9]: 63.8 µM
IC50 [1, 13]: 76.2 µM

COc1cccc(CCNc2ncc(-c3ccc([N+](=O)[O-])cc3)[nH]2)c1 [Compound 129]
IC50 (S. Typhimurium ATCC14028; 25° C., Table 22, read-out: S. Typhimurium IC50 (biofilm formation)): 19.1 µM
IC50 (S. Typhimurium ATCC14028; S. Typhimurium ATCC 14028, 25° C., read-out: IC50 for biofilm inhibition (25° C.)): 15 µM
IC50 ([1]; 25° C., Table 22, read-out: P. aeruginosa IC50 (biofilm formation)): 3.7 µM

CCCCCNc1nc(-c2ccc(Cl)cc2)c[nH]1 [Compound 87]
IC50 (S. Typhimurium ATCC14028; [7]): > 400 µM
IC50 [1, 8]: ~6.35 µM

CCCCCCCC[n+]1c(-c2ccc(OC)cc2)cn2cccnc21.[O-][Cl+3]([O-])([O-])[O-] [2-(4-Methoxyphenyl)-1-octylimidazo[1,2-a]pyrimidin-1-ium perchlorate]
IC50 (S. Typhimurium ATCC14028; [10]): 34.8 µM
IC50 [1, 11]: 8.73 µM

c1ccc2c(-c3cnc(NCc4ccc5c(c4)OCO5)[nH]3)cccc2c1 [Compound 133]
IC50 (S. Typhimurium ATCC14028; Salmonella enterica, 25° C., Table 22, read-out: S. Typhimurium IC50 (biofilm formation)): 261 µM
IC50 ([1]; Pseudomonas aeruginosa, PA14, 25° C., Table 22, read-out: P. aeruginosa IC50 (biofilm formation)): 10.5 µM

CCCCCNc1ncc(-c2ccc(Br)cc2)[nH]1 [Compound 104]
IC50 (S. Typhimurium ATCC14028; [7]): 3.1 µM
IC50 [1, 8]: 10.2 µM

CCCCCN1c2nccc[n+]2CC1(O)c1ccc(Cl)cc1 (racemic) [Compound 18]
IC50 (S. Typhimurium ATCC14028; [2]): 32.6 µM
IC50 [1, 3]: 164 µM

Nc1ncc(-c2ccc(Br)cc2)[nH]1 [Compound 101]
IC50 (S. Typhimurium ATCC14028; [7]): 47.9 µM
IC50 [1, 8]: 3.2 µM

CCCCCCCCN1c2nccc[n+]2CC1(O)c1ccc(Cl)c(Cl)c1 (stereo not shown) [Compound 49]
IC50 (S. Typhimurium ATCC14028; [6]): 7.09 µM
IC50 (S. Typhimurium ATCC14028; [2]): 7.1 µM
IC50 [1, 9]: ~12.3 µM
IC50 [1, 3]: 11.6 µM

CCCCCCCC[n+]1c(-c2ccc(F)cc2)cn2cccnc21.[O-][Cl+3]([O-])([O-])[O-] [2-(4-Fluorophenyl)-1-octylimidazo[1,2-a]pyrimidin-1-ium perchlorate]
IC50 (S. Typhimurium ATCC14028; [10]): 35.7 µM
IC50 [1, 11]: 19.5 µM

CCCCCCCCCCCCCCN1c2nccc[n+]2CC1(O)c1ccc(Cl)cc1 (racemic) [Compound 27]
IC50 (S. Typhimurium ATCC14028; [2]): > 800 µM
IC50 [1, 3]: > 800 µM

OC1(c2ccccc2)C[n+]2cccnc2N1C1CCCCCCC1 (stereo not shown) [Compound 60]
IC50 (S. Typhimurium ATCC14028; [6]): 58.4 µM
IC50 (S. Typhimurium ATCC14028; [12]): 58.4 µM
IC50 [1, 9]: 4.63 µM
IC50 [1, 13]: 176 µM
